Marks after values point to notes of the source that are not given here.
Key:
[1] = tested on: thrombosis of artery-vein bypass in rats; assay: Effects on thrombosis of artery-vein bypass in rats; type: in vivo, SD rats; details: for Dry-weight of thrombus / Wet-weight of thrombus: once per day for 3 days; for Inhibition (dry-weight of thrombus) / Inhibition (wet-weight of thrombus): vs. thrombus model group
[2] = tested on: model rats of middle cerebral artery thrombosis (MCAT); assay: Effects on cerebral infarct area of MCAT rats (TTC staining); type: in vivo, SD rats; details: for Cerebral infarct tissue weight/total brain weight: 24 hours after operation; for Inhibition (cerebral infarct): vs. model group
[3] = tested on: model rats of middle cerebral artery thrombosis (MCAT); assay: Effects on neural symptoms of MCAT rats (behavioral score); type: in vivo, SD rats; details: for Scores 6 hours: 6 hours after operation; for Scores 6 hours / Scores 24 hours: full mark 4; for Scores 24 hours: 24 hours after operation
[4] = Stability to light (purity by HPLC); details: light test, 10 days
Protocol: Tests were conducted for 10 days in accordance with the testing method as described in Pharmacopoeia of P.R. China, 2000 ed., appendix XIX C of part two, "Guideline for testing the stability of medicament: method for testing stability to light". The purity was determined in accordance with the test described in Pharmacopoeia of P.R. China, 2000 ed., appendix VD of part two, by using HPLC method, C18 column, mobile phase of acetonitrile:0.02M sodium dihydrogen phosphate = 40:60, detecting wavelength of 230 nm, flow rate of 1 ml/min.

[5] = tested on: ICR mice; details: mouse, in vivo, po, 168 h
[6] = Thermal stability (purity by HPLC); details: 10 days at 60°C
Protocol: Tests were conducted for 10 days at 60°C in accordance with the testing method as described in Pharmacopoeia of P.R. China, 2000 ed., appendix XIX C of part two, "Guideline for testing the stability of medicament: method for testing thermal stability". The purity was determined in accordance with the test described in Pharmacopoeia of P.R. China, 2000 ed., appendix VD of part two, by using HPLC method, C18 column, mobile phase of acetonitrile:0.02M sodium dihydrogen phosphate = 40:60, detecting wavelength of 230 nm, flow rate of 1 ml/min.

[7] = in vivo; details: both, ICR, mouse, po
[8] = Stability to humidity (high humidity test, purity by HPLC); type: physicochemical; details: 10 days
[9] = 50 mg/kg by gavage, vs. model group
[10] = 100 mg/kg by gavage, vs. model group
[11] = 200 mg/kg by gavage, vs. model group

SMILES	Cerebral infarct tissue weight/total brain weight ([2]; 50 mg/kg by gavage) [%]	Inhibition (cerebral infarct) ([2]; 50 mg/kg by gavage) [%]	Cerebral infarct tissue weight/total brain weight ([2]; 100 mg/kg by gavage) [%]	Inhibition (cerebral infarct) ([2]; 100 mg/kg by gavage) [%]	Cerebral infarct tissue weight/total brain weight ([2]; 200 mg/kg by gavage) [%]	Inhibition (cerebral infarct) ([2]; 200 mg/kg by gavage) [%]	Scores 6 hours ([3]; 50 mg/kg by gavage)	Scores 24 hours ([3]; 50 mg/kg by gavage)	% inhibition at hour 24 [3, 9] [%]	Scores 6 hours ([3]; 100 mg/kg by gavage)	Scores 24 hours ([3]; 100 mg/kg by gavage)	% inhibition at hour 24 [3, 10] [%]	Scores 6 hours ([3]; 200 mg/kg by gavage)	Scores 24 hours ([3]; 200 mg/kg by gavage)	% inhibition at hour 24 [3, 11] [%]	other results
CCCCC(=O)c1ccccc1C(=O)O [Calcium 2-(α-n-pentanonyl)benzoate, calcium 2-(α-n-pentanonyl)benzoate]	5.01±1.79	32.39	5.23±2.04	34.13	4.65±2.13	38.90	3.18±0.60	2.73±0.65**^,s	25.00	3.40±0.52	2.90±0.57	22.25	3.27±0.79	2.45±0.82	34.32	Dry-weight of thrombus ([1]; 50 mg/kg by gavage): 40.2 ± 18.0 mg; Wet-weight of thrombus ([1]; 50 mg/kg by gavage): 199.8 ± 30.4 mg; Inhibition (dry-weight of thrombus) ([1]; 50 mg/kg): 21.64%; Inhibition (wet-weight of thrombus) ([1]; 50 mg/kg): 22.92%; Dry-weight of thrombus ([1]; 100 mg/kg by gavage): 34.2 ± 13.1 mg; Wet-weight of thrombus ([1]; 100 mg/kg by gavage): 189.8 ± 52.3 mg; Inhibition (dry-weight of thrombus) ([1]; 100 mg/kg): 33.33%; Inhibition (wet-weight of thrombus) ([1]; 100 mg/kg): 26.77%; Dry-weight of thrombus ([1]; 200 mg/kg by gavage): 30.4 ± 13.9 mg; Wet-weight of thrombus ([1]; 200 mg/kg by gavage): 163.2 ± 64.4 mg; Inhibition (dry-weight of thrombus) ([1]; 200 mg/kg): 40.74%; Inhibition (wet-weight of thrombus) ([1]; 200 mg/kg): 37.04%; cerebral infarct compared with the model group (in words) ([2]; 50 mg/kg, P<0.05): significantly reduced; alleviation on neural symptoms at 24 hours after the operation (in words) ([3]; 50 mg/kg, vs. model group, P<0.01 or P<0.05): significantly alleviation; decomposed product (stability to light) [4]: no decomposed product; LD50 value [5]: 2683.8 mg/kg; decomposed product (thermal stability) [6]: no decomposed product
CCCCC(O)c1ccccc1C(=O)[O-].[K+] (stereo not drawn) [Potassium 2-(α-hydroxypentyl)benzoate]	6.16±2.46	16.87	5.73±2.20	27.83	5.37±2.00	29.43	3.50±0.71	3.30±0.48	9.34	3.55±0.52	3.00±0.89	19.57	3.45±0.52	2.73±0.79	26.81	LD50 at 7 days [7]: 1230 mg/kg; decomposition after absorbing moisture [8]: highly decomposed

Source: EP1734031A1, “NOVEL 2-(ALPHA-N-PENTANONYL)BENZOETES, THEIR PREPARATION AND USE” (priority 2004, dated 2005)
